Measured values published in article PMC10819888, “Benzimidazole-Based Derivatives as Apoptotic Antiproliferative Agents: Design, Synthesis, Docking, and Mechanistic Studies” (Molecules, 2024).

Legend:
Type in all cases: cell-based, human
caspase-8 = assay: Caspase-8 activation assay; conditions: PC-3 cell line
Experimental: (§1) For more details, see Supplementary Materials. […]
the positive wells exceeds the limits of the instrument. The O.D. values at 450 nm can only be read after the Stop Solution has been added to each well. If using a reader that […]
100 μl of Stop Solution to each well. Tap side of plate gently to mix. The solution in the wells should change from blue to yellow. Read the absorbance of each well at 450 nm having blanked the plate reader against a chromogen blank composed of 100 μl each of Stabilized Chromogen and Stop Solution. Read the plate within 2 hours after adding the Stop Solution. Use a curve fitting software to generate the standard curve. A four- […]
Read the concentrations for unknown samples and controls from the standard curve. Multiply value(s) obtained for sample(s) by the appropriate dilution factor to correct for the dilution in step 3. Samples […]
Diluent Buffer and reanalyzed.
4.2.4. Caspase-8 activation assay
Cells were obtained from American Type Culture Collection, cells were grown in RPMI […]
tested for caspase8, and lysed with Cell Extraction Buffer. This lysate was diluted in […]
caspase-8 content. (Cells are Plated in a density of 1.2 – 1.8 × 10,000 cells/well in a volume of 100µl complete growth medium + 100 ul of the tested compound per well in a 96-well plate for 24 hours before the enzyme assay for Tubulin.). The absorbance of each microwell was read on a spectro-photometer at 450 nm. A standard curve is prepared from 7human Caspase-8 standard dilutions and human Caspase-8 concentration determined.

Bax = Bax activation assay; conditions: PC-3 cell line
Experimental: For more details, see Supplementary Materials.
4.2.5. Bax activation assay
Bring all reagents, except the human Bax-α Standard, to room temperature for at least 30 minutes prior to opening. The human Bax -α Standard solution should not be left at room temperature for more than 10 minutes. All standards, controls and samples should be run in duplicate. Refer to the Assay Layout Sheet to determine the number of wells to be used and put any remaining wells with the desiccant back into the pouch and seal the ziploc. Store unused wells at 4 °C. Pipet 100 μL of Assay Buffer into the S0 ( 0 pg/mL standard) wells. Pipet 100 μL of Standards #1 through #6 into the appropriate wells. Pipet 100 μL of the Samples into the appropriate wells. Tap the plate gently to mix the contents. Seal the plate and incubate at room temperature on a plate shaker for 1 hour at ~500 rpm. Empty the contents of the wells and wash by adding 400 μL of wash solution to every well. Repeat the wash 4 more times for a total of 5 washes. After the final wash, empty or aspirate the wells and firmly tap the plate on a lint fr ee paper towel to remove any remaining wash buffer. Pipet 100 μL of yellow Antibody into each well, except the Blank. Seal the plate and incubate at room temperature on a plate shaker for 1 hour at ~500 rpm. Empty the contents of the wells and wash by addi ng 400 μL of […]
the final wash, empty or aspirate the wells and firmly tap the plate on a lint free paper towel to remove any remaining wash buffer. Add 100 μL of blue Co njugate to each well, except the Blank. Seal the plate and incubate at room temperature on a plate shaker for 30 minutes at ~500 rpm. Empty the contents of the wells and wash by adding 400 μL of wash solution to every well. Repeat the wash 4 more times for a total of 5 washes .
After the final wash, empty or aspirate the wells and firmly tap the plate on a lint free paper towel to remove any remaining wash buffer. Pipet 100 μL of Substrate Solution into each well. Incubate for 30 minutes at room temperature on a plate shaker at ~500 rpm. Pipet 100 μL Stop Solution to each well. Blank the plate reader against the Blank wells, read the optical density at 450 nm. Calculate the average net Optical Density (OD) bound for each standard and sample by subtracting the average Blank OD from the average OD for each standard and sample. Using linear graph paper, plot the Average Net OD for each standard versus Bax concentration in each standard.
Approximate a straight line through the points. The concentration of Bax in the unknowns can be determined by interpolation. […]

Bcl-2 = Bcl-2 inhibition assay; conditions: PC-3 cell line; for down-regulation of anti-apoptotic Bcl-2 protein levels: compared to staurosporine
Experimental: as §1
4.2.6. Bcl-2 inhibition assay
Mix all reagents thoroughly without foaming before use. Wash the microwells twice with approximately 300 μL Wash Buffer per well with thorough aspiration of microwell contents between washes. Take caution not to scratch the surface of the microwells.
After the last wash, empty the wells and tap microwell strips on absorbent pad or paper towel to remove excess Wash Buffer. Use the microwell strips immediately after washing or place upside down on a wet absorbent paper for not longer than 15 minutes.
Add 100 μL of Sample Diluent in duplicate to all standard wells and to the blank wells. Prepare standard (1:2 dilution) in duplicate ranging from 32 ng/mL to 0.5 ng/mL. Add 100 μL of Sample Diluent, in duplicate, to the blank wells.
Add 80 μL of Sample Diluent, in duplicate, to the sample wells. Add 20 μL of each Sample, in duplicate, to the designated wells. Add 50 μL of diluted biotin-conjugate to all wells, including the blank wells. Cover with a plate cover and incubate at room temperature, on a microplate shaker at 100 rpm if available, for 2 hours. Remove plate cover and empty the wells. Wash microwell strips 3 times as described in step 2. Add 100 μL of diluted Streptavidin-HRP to all wells, including the blank wells. Cover with a plate cover and incubate at room temperature, on a microplate shaker at 100 rpm if available, for 1 hour. Remove plate cover and empty the wells. Wash microwell strips […]
3 times as described in step 2. Proceed to the next step. Pipette 100 μl of mixed TMB Substrate Solution to all wells, including the blanks. Incubate the microwell strips at room temperature (18° to 25°C) for about 15 minutes, if available on a rotator set at 100 rpm. Avoid direct exposure to intense light. The point, at which the substrate reaction is stopped, is often determined by the ELISA reader. Many ELISA readers record absorbance only up to 2.0 O.D. Therefore, the color development within individual microwells must be watched by the person running the assay and the substrate reaction stopped before positive wells are no longer properly detectable. Stop the enzyme reaction by quickly pipetting 100 μL of Stop Solution into each well, including the blank wells. It is important that the Stop Solution is spread quickly and uniformly throughout the microwells to completely inactivate the enzyme. Results must be read immediately after the Stop Solution is added or within one hour if the microwell strips are stored at 2 - 8°C in the dark. Read absorbance of each microwell on a spectrophotometer using 450 nm as the primary wavelength.
4.3. Statistical analysis
Computerized Prism 5 program was used to statistically analyzed data using one-way ANOVA test followed by Tukey’s as post ANOVA for multiple comparison at P ≤.05.
Data were presented as mean ± SEM.

Row | SMILES | Caspase-8 Conc (caspase-8) [ng/mL] | caspase-8 increase compared to untreated control cell (caspase-8) [times] | caspase-8 level (caspase-8) [ng/mL] | Bax Conc (Bax) [pg/mL] | Bax increase compared to untreated PC-3 cancer cells (Bax) [fold] | Bax level (Bax) [pg/mL] | Bcl-2 Conc (Bcl-2) [ng/mL] | down-regulation of anti-apoptotic Bcl-2 protein levels (Bcl-2) | Caspase-8 Fold Change (caspase-8; vs control) | Bax Fold Change (Bax; vs control) | Bcl-2 Fold Reduction (Bcl-2; vs control)
1 | O=C(NN=Cc1ccc([N+](=O)[O-])cc1)c1ccc2[nH]c(-c3ccc(Cl)cc3)nc2c1 [Compound 4c, N′-(4-Nitrobenzylidene)-2-(4-chlorophenyl)-1H-benzimidazole-5-carbohydrazide] | 1.90 | 16 | 1.90 | 185 | 26 | 185 | 0.80 | equipotent down-regulation | – | – | –
2 | O=C(NN=Cc1ccc(Cl)cc1)c1ccc2[nH]c(-c3ccc(Cl)cc3)nc2c1 [Compound 4e, N′-(4-Chlorobenzylidene)-2-(4-chlorophenyl)-1H-benzimidazole-5-carbohydrazide] | 2.20 | 18 | 2.20 | 220 | 31 | 220 | 0.75 | equipotent down-regulation | 18 | 31 | 4
